Data as given in patent publication US5244898A, “Benzoheterocyclic compounds” (Otsuka Pharmaceutical Co., Ltd., priority 1991, dated 1993).
Where a name gives a salt, the structure may show the parent alone.

Columns and labels:
V2 Receptor = target: T1, V2 Receptor (Rattus norvegicus, UniProt Q00788); experiment: V2 Receptor Binding Assay ([3H]-Arg-vasopressin, rat kidney plasma membrane); settings: 4° C., pH 8.0
T1 construct: rat kidney plasma membrane preparations; from tissue; host or cells: rat kidney plasma membranes
T1 sequence (Q00788 whole entry): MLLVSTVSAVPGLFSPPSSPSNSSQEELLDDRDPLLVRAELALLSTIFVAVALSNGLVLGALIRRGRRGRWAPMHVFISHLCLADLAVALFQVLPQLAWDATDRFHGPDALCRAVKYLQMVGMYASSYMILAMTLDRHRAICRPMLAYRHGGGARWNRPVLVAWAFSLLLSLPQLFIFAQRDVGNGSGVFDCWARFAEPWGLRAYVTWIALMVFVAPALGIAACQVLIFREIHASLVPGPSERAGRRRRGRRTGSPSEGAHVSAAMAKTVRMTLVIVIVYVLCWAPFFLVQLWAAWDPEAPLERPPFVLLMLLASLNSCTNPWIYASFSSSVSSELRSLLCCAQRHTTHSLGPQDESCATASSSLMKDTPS
Method: Chem., 253, 3211 (1978)], the plasma membrane (100000 dpm, 4×10^-10M) of [^3 H]-Arg-vasopressin and a test compound (0.6 mg, 10^-10 -10^-5 M) are incubated at 4° C. for 3 hours in 100 mM Tris-HCl buffer pH: 8.0 (250 μl ) containing 5 mM MgCl2, 1 mM EDTA and 0.1 % BSA. After incubation, the mixture is filtered using the glass filter (GF/F) so as to separate the membrane preparation combining with vasopressin and then washed twice with the buffer (5 ml). This glass filter is taken out and mixed with liquid scintillation cocktail. The amount of [^3 H]-vasopressin combining with the membrane is measured by liquid scintillation counter and the rate of the inhibitory effect of the test compound is estimated according to the following equation. [formula]
(§1) C1 : The amount of [^3 H]-vasopressin combining with the membrane in the presence of the test compound of a known amount.
(§2) C0 : The amount of [^3 H]-vasopressin combining with the membrane in the absence of the test compound.
B1 : The amount of [3H-vasopressin combining with the membrane in the presence of the excess amount of vasopressin (10^-6 M).
(§3) The results are expressed as IC50 value, which is the concentration of the test compound required to achieve the inhibitory effect in the rate of 50%.

V1 Receptor = V1 Receptor (Rattus norvegicus, UniProt P30560); experiment: V1 Receptor Binding Assay ([3H]-Arg-vasopressin, rat liver plasma membrane); settings: 37° C., 10 minutes, pH 8.0
Sequence of V1 Receptor (P30560 whole entry): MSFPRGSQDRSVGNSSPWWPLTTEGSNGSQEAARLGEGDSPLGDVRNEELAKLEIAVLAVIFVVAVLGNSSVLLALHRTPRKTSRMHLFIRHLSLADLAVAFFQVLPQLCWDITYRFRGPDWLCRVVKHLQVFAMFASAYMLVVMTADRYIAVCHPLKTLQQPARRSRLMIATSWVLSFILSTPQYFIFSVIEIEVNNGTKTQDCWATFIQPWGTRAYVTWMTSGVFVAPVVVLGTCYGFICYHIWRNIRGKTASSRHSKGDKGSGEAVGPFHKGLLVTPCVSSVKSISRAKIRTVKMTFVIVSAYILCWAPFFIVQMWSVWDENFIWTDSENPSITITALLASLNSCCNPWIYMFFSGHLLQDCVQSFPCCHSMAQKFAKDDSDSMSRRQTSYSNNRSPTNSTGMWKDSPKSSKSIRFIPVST
Method: After incubation, the mixture is filtered three times using the glass filter (GF/F) so as to separate the membrane preparation combining with vasopressin and then washed with the buffer (5 ml). This glass filter is taken out and mixed with liquid scintillation cocktail. The amount of [^3 H]-vasopressin combining with the membrane is measured by liquid scintillation counter and the rate of the inhibitory effect of the test compound is estimated according to the following equation.
as §1, §2
B1 : The amount of [^3 H]-vasopressin combining with the membrane in the presence of the excess amount of vasopressin (10^-6 M).
as §3

| SMILES | IC50 (V2 Receptor) [nM] | IC50 (V1 Receptor) [nM] |
| --- | --- | --- |
| COc1cc(NC(=O)Cc2ccccc2C)ccc1C(=O)N1CCCC(O)c2cc(Cl)ccc21 (stereo not drawn) [Test Compound 18, 5-Hydroxy-7-chloro-1-{2-methoxy-4-[2-(2-methylphenyl)acetylamino]benzoyl}-2,3,4,5-tetrahydro-1H-benzazepine] | 4 | 55 |
| COCC(=O)OC1CCCN(C(=O)c2ccc(NC(=O)c3ccccc3C)cc2)c2ccc(Cl)cc21 (stereo not drawn) [Test Compound 24, 5-(2-Methoxyacetyloxy)-7-chloro-1-[4-(2-methylbenzoylamino)benzoyl]-2,3,4,5-tetrahydro-1H-benzazepine] | 7 | 18 |
| Cc1ccccc1C(=O)Nc1ccc(C(=O)N2CCCC(COC(=O)CN(C)C)c3cc(Cl)ccc32)cc1 (stereo not drawn) [Test Compound 25, 5-[2-(Dimethylaminoacetyloxy)methyl]-7-chloro-1-[4-(2-methylbenzoylamino)benzoyl]-2,3,4,5-tetrahydro-1H-benzazepine hydrochloride] | 4 | 21 |
| CCOC(=O)CC1CCCN(C(=O)c2ccc(NC(=O)c3ccccc3C)cc2OC)c2ccc(Cl)cc21 (stereo not drawn) [Test Compound 26, 5-Ethoxycarbonylmethyl-7-chloro-1-[2-methoxy-4-(2-methylbenzoylamino)benzoyl]-2,3,4,5-tetrahydro-1H-benzazepine] | 9 | 77 |
| COc1cc(C(=O)N2CCCC(CC(=O)N3CCN(C)CC3)c3cc(Cl)ccc32)ccc1NC(=O)c1ccccc1C (stereo not drawn) [Test Compound 27, 5-[(4-Methyl-1-piperazinyl)carbonylmethyl]-7-chloro-1-[3-methoxy-4-(2-methylbenzoylamino)benzoyl]-2,3,4,5-tetrahydro-1H-benzazepine] | 7 | 34 |
| CCOc1cc(NC(=O)c2ccccc2Cl)ccc1C(=O)N1CCCC(CC(N)=O)c2cc(Cl)ccc21 (stereo not drawn) [Test Compound 28, 5-Carbamoylmethyl-7-chloro-1-[2-ethoxy-4-(2-chlorobenzoylamino)benzoyl]-2,3,4,5-tetrahydro-1H-benzazepine] | 2 | 30 |
| COc1cc(NC(=O)c2ccccc2C)ccc1C(=O)N1CCCC(OC(=O)[C@@H](N)CCCCN)c2cc(Cl)ccc21 (stereo partly drawn) [Test Compound 29, 5-(L-Lysyloxy)-7-chloro-1-[2-methoxy-4-(2-methylbenzoylamino)benzoyl]-2,3,4,5-tetrahydro-1H-benzazepine dihydrochloride] | 6 | 40 |
| COc1cc(C(=O)N2CCCC(CC(=O)NC3CCNCC3)c3cc(Cl)ccc32)ccc1NC(=O)c1ccccc1C (stereo not drawn) [Test Compound 30, 5-[(4-Piperidinyl)aminocarbonylmethyl]-7-chloro-1-[3-methoxy-4-(2-methylbenzoylamino)benzoyl]-2,3,4,5-tetrahydro-1H-benzazepine hydrochloride] | 9 | 31 |
| COc1cc(C(=O)N2CCCC(CC(=O)N(C)C)c3cc(Cl)ccc32)ccc1NC(=O)c1ccccc1C (stereo not drawn) [Test Compound 32, 5-Dimethylaminocarbonylmethyl-7-chloro-1-[3-methoxy-4-(2-methylbenzoylamino)benzoyl]-2,3,4,5-tetrahydro-1H-benzazepine] | 4 | 11 |
| Cc1ccccc1C(=O)Nc1ccc(C(=O)N2CCCC(=CCCN(C)C)c3cc(F)ccc32)c(Cl)c1 [Test Compound 33, 5-(3-Dimethylaminopropylidene)-7-fluoro-1-[2-chloro-4-(2-methylbenzoylamino)benzoyl]-2,3,4,5-tetrahydro-1H-benzazepine hydrochloride] | 2 | 84 |
| COc1cc(NC(=O)c2ccccc2C)ccc1C(=O)N1CCCC(OCCN2CCCC2)c2cc(Cl)ccc21 (stereo not drawn) [Test Compound 34, 5-[2-(1-Pyrrolidinyl)ethoxy]-7-chloro-1-[2-methoxy-4-(2-methylbenzoylamino)benzoyl]-2,3,4,5-tetrahydro-1H-benzazepine hydrochloride] | 6 | 9 |
| COc1cc(NC(=O)c2ccccc2C)ccc1C(=O)N1CCCC(OCCCOS(=O)(=O)c2ccc(C)cc2)c2cc(Cl)ccc21 (stereo not drawn) [Test Compound 37, 5-[3-(p-Toluenesulfonyloxy)propoxy]-7-chloro-1-[2-methoxy-4-(2-methylbenzoylamino)benzoyl]-2,3,4,5-tetrahydro-1H-benzazepine] | 5.4 | 210 |
| Cc1ccccc1C(=O)Nc1ccc(C(=O)N2CCCC(C#N)c3cc(Cl)ccc32)cc1Cl (stereo not drawn) [Test Compound 38, 5-Cyano-7-chloro-1-[3-chloro-4-(2-methylbenzoylamino)benzoyl]-2,3,4,5-tetrahydro-1H-benzazepine] | 150 | 160 |
| COc1cc(C(=O)N2CCCC(CC#N)c3cc(Cl)ccc32)ccc1NC(=O)c1ccccc1C (stereo not drawn) [Test Compound 39, 5-Cyanomethyl-7-chloro-1-[3-methoxy-4-(2-methylbenzoylamino)benzoyl]-2,3,4,5-tetrahydro-1H-benzazepine] | 14 | 44 |
| COc1cc(NC(=O)c2ccccc2C)ccc1C(=O)N1CCCC(OCCN2CCN(C(C)=O)CC2)c2cc(Cl)ccc21 (stereo not drawn) [Test Compound 40, 5-[2-(4-Acetyl-1-piperazinyl)ethoxy]-7-chloro-1-[2-methoxy-4-(2-methylbenzoylamino)benzoyl]-2,3,4,5-tetrahydro-1H-benzazepine hydrochloride] | 7 | 73 |
| CNC(=O)CC1CCCN(C(=O)c2ccc(NC(=O)c3ccccc3C)cc2OC)c2ccc(F)cc21 (stereo not drawn) [Test Compound 42, 5-Methylaminocarbonylmethyl-7-fluoro-1-[2-methoxy-4-(2-methylbenzoylamino)benzoyl]-2,3,4,5-tetrahydro-1H-benzazepine] | 6 | 160 |
| COc1cc(NC(=O)c2ccccc2C)ccc1C(=O)N1CCCC(OCCN2CCNCC2)c2cc(Cl)ccc21 (stereo not drawn) [Test Compound 43, 5-[2-(1-Piperazinyl)ethoxy]-7-chloro-1-[2-methoxy-4-(2-methylbenzoylamino)benzoyl]-2,3,4,5-tetrahydro-1H-benzazepine dihydrochloride] | 6 | 70 |
| COc1cc(NC(=O)c2ccccc2Cl)ccc1C(=O)N1CCCC(CC(=O)N2CCN(C)CC2)c2cc(Cl)ccc21 (stereo not drawn) [Test Compound 44, 5-[(4-Methyl-1-piperazinyl)carbonylmethyl]-7-chloro-1-[2-methoxy-4-(2-chlorobenzoylamino)benzoyl]-2,3,4,5-tetrahydro-1H-benzazepine hydrochloride] | 6 | 24 |
| COc1cc(NC(=O)c2ccccc2Cl)ccc1C(=O)N1CCCC(CC(=O)N2CCC(N(C)C)CC2)c2cc(Cl)ccc21 (stereo not drawn) [Test Compound 45, 5-[(4-Dimethylamino-1-piperidinyl)carbonylmethyl]-7-chloro-1-[2-methoxy-4-(2-chlorobenzoylamino)benzoyl]-2,3,4,5-tetrahydro-1H-benzazepine hydrochloride] | 4 | 8 |
| COc1cc(NC(=O)c2ccccc2C)ccc1C(=O)N1CCCC(CN2CCN(C)CC2)c2cc(F)ccc21 (stereo not drawn) [Test Compound 46, 5-[(4-Methyl-I-piperazinyl)methyl]-7-fluoro-1-[2-methoxy-4-(2-methylbenzoylamino)benzoyl]-2,3,4,5-tetrahydro-1H-benzazepine] | 9 | 89 |
| COc1cc(NC(=O)c2ccccc2C)ccc1C(=O)N1CCCC(OCCN2CCN(C)CC2)c2cc(F)ccc21 (stereo not drawn) [Test Compound 47, 5-[2-(4-Methyl-1-piperazinyl)ethoxy]-7-fluoro-1-[2-methoxy-4-(2-methylbenzoylamino)benzoyl]-2,3,4,5-tetrahydro-1H-benzazepine] | 8 | 330 |
| COc1cc(NC(=O)c2ccccc2Cl)ccc1C(=O)N1CCCC(CC(=O)NC2CCN(Cc3ccccc3)CC2)c2cc(Cl)ccc21 (stereo not drawn) [Test Compound 48, 5-[(1-Benzyl-4-piperidinyl)aminocarbonylmethyl]-7-chloro-1-[2-methoxy-4-(2-chlorobenzoylamino)benzoyl]-2,3,4,5-tetrahydro-1H-benzazepine hydrochloride] | 12 | 37 |
| Cc1ccccc1C(=O)Nc1ccc(C(=O)N2CCCC(CC(=O)N3CCCC3)c3cc(F)ccc32)cc1 (stereo not drawn) [Test Compound 50, 5-[(1-Pyrrolidinyl)carbonylmethyl]-7-fluoro-1-[4-(2-methylbenzoylamino)benzoyl]-2,3,4,5-tetrahydro-1H-benzazepine] | 15 | 110 |
| COc1cc(NC(=O)c2ccccc2Br)ccc1C(=O)N1CCCC(CC(=O)N(C)C)c2cc(F)ccc21 (stereo not drawn) [Test Compound 51, 5-Dimethylaminocarbonylmethyl-7-fluoro-1-[2-methoxy-4-(2-bromobenzoylamino)benzoyl]-2,3,4,5-tetrahydro-1H-benzazepine] | 3 | 18 |
| COc1cc(NC(=O)c2ccccc2C)ccc1C(=O)N1CCCC(CC(=O)N2CCNCC2)c2cc(Cl)ccc21 (stereo not drawn) [Test Compound 52, 5-[(1-Piperazinyl)carbonylmethyl]-7-chloro-1-[2-methoxy-4-(2-methylbenzoylamino)benzoyl]-2,3,4,5-tetrahydro-1H-benzazepine hydrochloride] | 6 | 16 |
| COc1cc(NC(=O)c2ccccc2C)ccc1C(=O)N1CCCC(CCN2CCC(N(C)C)CC2)c2cc(Cl)ccc21 (stereo not drawn) [Test Compound 54, 5-[2-(4-Dimethylamino-1-piperidinyl)ethyl]-7-chloro-1-[2-methoxy-4-(2-methylbenzoylamino)benzoyl]-2,3,4,5-tetrahydro-1H-benzazepine dihydrochloride] | 4 | 54 |
| COc1cc(NC(=O)c2ccccc2C)ccc1C(=O)N1CCCC(CCN2CCN(C)CC2)c2cc(Cl)ccc21 (stereo not drawn) [Test Compound 55, 5-[2-(4-Methyl-1-piperazinyl)ethyl]-7-chloro-1-[2-methoxy-4-(2-methylbenzoylamino)benzoyl]-2,3,4,5-tetrahydro-1H-benzazepine dihydrochloride] | 12 | 62 |
